Ends that are not written are not given here.
Experiments:
CXCR4 = CXCR4 (Homo sapiens, UniProt P61073); test: CXCR4 internalization, confocal microscopy of HEK cells expressing EGFP-CXCR4; format: cell-based; set-up: expressed in transfected cells; host or cells: HEK293; settings: 30 min, 37° C.
Text: Upon stimulation with the appropriate chemokine, numerous G-protein-coupled receptors get internalized by clathrin-coated pits. As an antagonist of CXCR4 responses, ALB 408-423 may also alter chemokine induced CXCR4 receptor internalization. To analyze the antagonistic properties of ALB408-423 on CXCL12 mediated CXCR4 internalization, EGFP-CXCR4 receptor expressing cells were split and grown for 2 days in 24-well plates on 12-mm glass coverslips coated with rat type I collagen. The cells were then incubated for periods ranging from 0 to 30 min in HEPES-BSA buffer supplemented with protease inhibitors containing either 100 nM CXCL12 or 50 μM of ALB408-423 or 100 nM CXCL12 plus 50 μM of ALB408-423 at 37° C. […] Cells were then analyzed with an inverted microscope (LEICA) and a laser scanning confocal imaging system (LEICA AOBS SP2 MP) using a HCX PL APO 1bd.BL 63X 1.40 OIL UV objective (n° 506192). […] EGFP was excited with the 488 nm laser-line of the Argon laser and detected and amplified by one photomultiplier tube (PMT) in the so-called mCFP Channel from 495 to 550 nm (PMT1 610 High Voltage -HV-, offset 0). […]
FIG. 15. […] Receptor endocytosis was monitored on HEK cells expressing EGFP-CXCR4 and analyzed by confocal microscopy immediately (0 min, upper panel) after addition of CXCL12, ALB408-423 or both compounds, or 30 min later (lower panel). […]

[1] = test system: X4 tropic HIV-1 variants NL4-3, P51-Sc, P59-S/27 and P34-S; settings: TZM-bl cells
Procedure: (§1) 5000 TZM-bl cells were seeded in 100 μl of DMEM (10% FCS, 100 U/ml of penicillin G and 100 μg/ml of streptomycin sulfate). ALB408-423 was dissolved in PBS (10 mg/ml). One day later, 20 μl serial dilutions of ALB408-423 in PBS were added to cells and cells were subsequently infected with 0.5 ng of p24 antigen HIV-1 in a total volume of 200 μl. HIV-1 molecular clones differing in coreceptor tropism were used and generated as described (Papkalla et al., J. Virol. 76: 8455-9, 2002).
(§2) FIG. 3: Chemically synthesized ALB408-423 specifically blocks X4 tropic HIV-1 infection. TZM-bl cells containing indicated dilutions of peptide were infected with HIV-1 variants differing in their coreceptor tropism. 3 days later Gal Screen assay was used to measure infection rates. […] B) Infection rates in the presence of 500 μg/ml ALB408-423 showing that the peptide specifically blocks X4 but not R5 tropic HIV-1 infection. Data shown are mean values±standard deviation derived from triplicate infections relative to PBS containing cells (100% infection).
(§3) After 3 days, infection was detected using GalScreen assay (TROPIX) (example 1). […] In contrast, CCR5 tropic HIV-1 variants were not inhibited even in the presence of very high doses of ALB408-423 (500 μg/ml) (FIG. 3B). Due to the specific inhibition of the infection caused by X4-tropic HIV-1 variants, it is to be assumed that ALB408-423 interacts with the chemokine receptor CXCR4.
(§4) Virus stocks were first titrated on TZM-bl cells. Then TZM-bl cells containing 100 μM of peptides were infected with infectivity normalized amounts of X4, dualtropic (X4/R5) or R5 tropic HIV-1.
(§5) FIG. 10. ALB408-423 and truncated ALB derivatives specifically block X4 tropic HIV-1 infection. TZM-bl cells either containing PBS or 100 μM of indicated peptides were infected with normalized infectivities of X4, dualtropic or R5 tropic HIV-1 clones. Infection rates were measured 2 days post infection using the GalScreen assay. Shown are mean values (% of PBS treated control)±standard deviations derived from triplicate measurements.

[2] = test system: dual tropic (CXCR4 and CCR5 using) variant 92ht593.1; test: Infection of TZM-bl cells by dual tropic HIV-1, GalScreen; format: cell-based
Procedure: as §1, §2, §3, §4, §5

X4 tropic HIV-1 NL4-3 = test: X4 tropic HIV-1 infection and replication in PBMC, p24 antigen ELISA; format: cell-based; settings: 100 μM peptide, day 6 post infection
Procedure: To analyze the effect of ALB408-423 and derivatives thereof in relevant primary cells, peripheral blood mononuclear cells were isolated from Buffy coat derived from the DRK-Blutspendedienst Baden-Württemberg-Hessen using Ficoll density centrifugation. 1×10^6 PBMC per ml were stimulated with 1 μg/ml phytohemagglutinine (PHA, Oxoid, #3085280) and 10 ng/ml Interleukin 2 (IL-2, Strathmann, #9511192) for three days. Thereafter cells were pelleted and resuspended in IL-2 containing medium. 1.5×10^5 PBMC (250 μl) were seeded in 96 well dishes, peptides were added and cells were infected with […] p24 antigen of X4 tropic HIV-1 NL4-3. Supernatants containing progeny virus were taken at day 1, 3 and 6 post infection. Virus production was measured by p24 antigen ELISA (SAIC-Frederick, Inc [AIDS & Cancer virus program]). […] In the presence of 20 μM peptides virus replication was severely impaired.
FIG. 11. ALB408-423 and derivatives inhibit X4 tropic HIV-1 infection of peripheral blood mononuclear cells (PBMC). Cells were incubated with indicated concentrations of ALB408-423 or truncated variants and infected with X4 tropic HIV-1. Supernatants obtained after 6 days were analyzed by p24 ELISA. Shown are mean p24 antigen values (ng/ml) derived from triplicate infections±standard deviation.

Chain of CXCR4 (P61073 whole entry): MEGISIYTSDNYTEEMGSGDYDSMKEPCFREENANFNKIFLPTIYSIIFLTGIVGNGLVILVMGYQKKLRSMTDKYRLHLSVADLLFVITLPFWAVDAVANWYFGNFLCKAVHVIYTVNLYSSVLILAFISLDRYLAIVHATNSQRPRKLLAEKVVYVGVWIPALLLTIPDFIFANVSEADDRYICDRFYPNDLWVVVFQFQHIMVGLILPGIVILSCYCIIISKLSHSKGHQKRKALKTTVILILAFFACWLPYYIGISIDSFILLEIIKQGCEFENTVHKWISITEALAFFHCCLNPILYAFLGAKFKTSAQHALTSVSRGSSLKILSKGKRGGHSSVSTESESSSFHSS

Question: What does the source list for “LVRYTKKVPQVSTPTL [ALB408-423, LVRYTKKVPQVSTPTL]”?
Answer: effect on CXCL12 mediated CXCR4 internalization (CXCR4; 100 nM CXCL12 plus 50 μM peptide): blocked CXCL12 mediated CXCR4 internalization; CXCR4 internalization by the peptide alone (CXCR4; 50 μM): did not induce internalization of the receptor; mean IC50 over all analyzed X4-tropic HIV-1 variants ([1]; 0.5 ng p24, 3 days, synthetic peptide): 24.2 µg/mL; block of infection by X4 tropic HIV-1 clones (NL4-3, P51-Sc, P34-s) ([1]; 100 μM peptide): almost completely; inhibition of dualtropic HIV-1 clone 92ht593.1 ([2]; 100 μM peptide): only moderately; inhibition of dual tropic variant 92ht593.1 ([2]; serial dilutions, compared with X4 tropic variants): blocked less efficiently; p24 antigen in supernatants (X4 tropic HIV-1 NL4-3): No p24 antigen could be detected

Source: patent publication US9045563B2, “CXC chemokine receptor 4 (CXCR4) antagonistic polypeptide” (priority 2007, dated 2015)
